# Literature values, collected in patent US20220228277A1, “COMPACT GENERATOR FOR GENERATING STERILIZING MATERIALS” (priority 2021, published 2022).
# Legend:
# [1] = in a year
# [2] = 20° C. water; also printed as 29.9 ppm
# [3] = environment dependent
structure (smiles),measurement,setting,value
"OO [H2O2, hydrogen peroxide]",decay of sealed H2O2-H2O solution,[1],10%
"O=[O+][O-] [O3, ozone]",solubility of O3 in water,[2],29.9 µg/mL
same,natural life of O3 (turns into O2),[3],20 to 30 min
